pEC50: −log10 of the molar value. Several values for one entry are separate records, joined by “and”; a condition that tells them apart may be missing. Identical values can stand only once. Like-named read-outs stand apart in the source and are kept apart here. Each block holds one compound with its values, some of them ahead of it.
Experiments:
AsPC-1 cells = test: Cell proliferation assay, chemodrug + ATR inhibitor (Incucyte confluence, 72 h);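 note: underlying read-out for every value is AsPC-1 confluence after 72 h incubation at 37 °C and 5% CO2, divided by that well's starting confluence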
Description: Cells were seeded at 5000 cells/well into 96-well flat bottom plates (Eppendorf) and allowed to attach overnight. […] Cells were incubated for 72 h at 37 °C and 5% CO2. Cell confluence readouts at 72 h were either normalized to their initial confluence using the Incucyte software (AsPC-1) or used without prior normalization (all others). […] Each experiment was performed in triplicates, the data was plotted as mean ± standard deviation (s.d.).

BxPC-3 = test: cells; parameters: Viability of PDAC cell lines, ATPlite luminescence, 11-dose single-agent curve fit; conditions: Homo sapiens, BXPC-3, 72 h, read-out: EC50 [nM]
Description: (§1) Afterward, small amounts were transferred to 384-well intermediate plates (Greiner Bio-One GmbH, Germany). […] For drug combination screening, 1000 to 5000 cells were seeded into 384-well plates (CulturPlate™, Perkin Elmer, MA, USA) using a Multidrop™ Combi Reagent Dispenser (Thermo Scientific, MA, USA) in 50 µl medium per well 24 h prior to drug treatment (seeding densities see Appendix Table S1). […] The final DMSO concentration in each well was 0.2%. […] Eight wells per plate without library drug served as negative controls, and sixteen wells per plate containing 5 µM Staurosporine served as positive controls. […] Next, we analyzed the drug sensitivity of immortalized duct cell line HPDE to detect effects unrelated to pancreatic cancer.

Colo-357 = test: cells; parameters: Viability of PDAC cell lines, ATPlite luminescence, 11-dose single-agent curve fit; conditions: Homo sapiens, COLO357, 72 h, read-out: EC50 [nM]
Description: as §1

PaTu-8988-T = test: cells; parameters: Viability of PDAC cell lines, ATPlite luminescence, 11-dose single-agent curve fit; conditions: Homo sapiens, PaTu 8988t, 72 h, read-out: EC50 [nM]
Description: as §1

PSN-1 [1] = test: cells; parameters: Viability of PDAC cell lines, ATPlite luminescence, 11-dose single-agent curve fit; conditions: Homo sapiens, PSN1, 72 h, read-out: EC50 [nM]
Description: as §1

PANC-1 = test: cells; parameters: Viability of PDAC cell lines, ATPlite luminescence, 11-dose single-agent curve fit; conditions: Homo sapiens, PANC-1, 72 h, read-out: EC50 [nM]
Description: as §1

Dan-G = test: cells; parameters: Viability of PDAC cell lines, ATPlite luminescence, 11-dose single-agent curve fit; conditions: 72 h, read-out: EC50 [nM]
Description: as §1

AsPC-1 = test: cells; parameters: Viability of PDAC cell lines, ATPlite luminescence, 11-dose single-agent curve fit; conditions: Homo sapiens, ASPC1, 72 h, read-out: EC50 [nM]
Description: as §1

FAMPAC = test: cells; parameters: Viability of PDAC cell lines, ATPlite luminescence, 11-dose single-agent curve fit; conditions: 72 h, read-out: EC50 [nM]
Description: as §1

Capan-1 = test: cells; parameters: Viability of PDAC cell lines, ATPlite luminescence, 11-dose single-agent curve fit; conditions: Homo sapiens, CAPAN-1, 72 h, read-out: EC50 [nM]
Description: as §1

HPDE = test: cells; parameters: Viability of PDAC cell lines, ATPlite luminescence, 11-dose single-agent curve fit; conditions: HPDE, 72 h, read-out: EC50 [nM]
Description: as §1

HuP-T4 = test: cells; parameters: Viability of PDAC cell lines, ATPlite luminescence, 11-dose single-agent curve fit; conditions: Homo sapiens, HuP-T4, 72 h, read-out: EC50 [nM]
Description: as §1

Suit2-07 = test: cells; parameters: Viability of PDAC cell lines, ATPlite luminescence, 11-dose single-agent curve fit; conditions: 72 h, read-out: EC50 [nM]
Description: as §1

MiaPaCa-2 = test: cells; parameters: ATPlite luminescence viability of PDAC cell lines, 11-dose single-agent curves, 4-parameter fit; conditions: Homo sapiens, MIA PaCa-2, 72 h, read-out: EC50 [nM]
Description: as §1

PSN-1 [2] = test: cells; parameters: ATPlite luminescence viability of PDAC cell lines, 11-dose single-agent curves, 4-parameter fit; conditions: Homo sapiens, PSN1, 72 h, read-out: EC50 [nM]
Description: as §1

[3] = AsPC-1, Experiment GEM (no ATRi), single replicates R1-R3
[4] = AsPC-1, Experiment GEM+ATRi_dose1, single replicates R1-R3
[5] = AsPC-1, Experiment GEM+ATRi_dose2, single replicates R1-R3
[6] = AsPC-1, Experiment GEM+ATRi_dose3, single replicates R1-R3

pEC50 (AsPC-1 cells; Homo sapiens, ASPC1, 72 h, AsPC-1, Experiment GEM (no ATRi), single replicates R1-R3): 8.72
EC50 (AsPC-1 cells; Homo sapiens, ASPC1, 72 h, read-out: EC50 mean [nM], AsPC-1, Experiment GEM (no ATRi), mean of R1-R3, repeated in each replicate line): 2.09 nM
EC50 (AsPC-1 cells; Homo sapiens, ASPC1, 72 h, read-out: pEC50, AsPC-1 (converted), Experiment GEM (no ATRi), single replicates R1-R3): 1.91 nM
EC50 (AsPC-1 cells; Homo sapiens, ASPC1, read-out: EC50 mean [nM], AsPC-1, Experiment GEM (no ATRi), mean of R1-R3, repeated in each replicate line): 2.09 nM
EC50 (AsPC-1 cells; Homo sapiens, ASPC1, read-out: EC50 mean [nM], AsPC-1, Experiment GEM+ATRi_dose1, mean of R1-R3, repeated in each replicate line): 2.62 nM
EC50 (AsPC-1 cells; Homo sapiens, ASPC1, read-out: EC50 mean [nM], AsPC-1, Experiment GEM+ATRi_dose3, mean of R1-R3, repeated in each replicate line): 2.03 nM
SMILES: CC(=O)O[C@H]1C(=O)[C@@]2(C)[C@H]([C@H](OC(=O)c3ccccc3)[C@]3(O)C[C@H](OC(=O)[C@H](O)[C@@H](NC(=O)c4ccccc4)c4ccccc4)C(C)=C1C3(C)C)[C@]1(OC(C)=O)CO[C@@H]1C[C@@H]2O [Paclitaxel]
Curve slope (AsPC-1 cells; [3]): 1.97 and 2.99 and 2.20
Curve top (AsPC-1 cells; [3]): 0.44 and 0.38 and 0.36
Curve slope (AsPC-1 cells; [4]): 1.47 and 2.08 and 1.46
Curve top (AsPC-1 cells; [4]): 0.45 and 0.37 and 0.39
Curve slope (AsPC-1 cells; [5]): 2.59 and 1.83 and 1.78
Curve top (AsPC-1 cells; [5]): 0.45 and 0.38 and 0.37
Curve bottom (AsPC-1 cells; [6]): 0.92 and 0.80
Curve slope (AsPC-1 cells; [6]): 2.50 and 1.97 and 3.20
Curve top (AsPC-1 cells; [6]): 0.42 and 0.35 and 0.36
Response (AsPC-1 cells; chemodrug 1 nM + ATRi 3 nM): 78.95 and 82.15 and 71.41
Response (AsPC-1 cells; chemodrug 1 nM + ATRi 10 nM): 76.45 and 74.25 and 74.55
Response (AsPC-1 cells; chemodrug 1 nM + ATRi 30 nM): 75.55 and 68.26 and 64.62
Response (AsPC-1 cells; chemodrug 1 nM alone (ATRi 0 nM)): 78.71 and 81.33 and 75.17
Response (AsPC-1 cells; chemodrug 3 nM + ATRi 3 nM): 63.11 and 58.53 and 53.51
Response (AsPC-1 cells; chemodrug 3 nM + ATRi 10 nM): 46.62 and 47.02 and 47.86
Response (AsPC-1 cells; chemodrug 3 nM + ATRi 30 nM): 47.65 and 42.95 and 41.75
Response (AsPC-1 cells; chemodrug 3 nM alone (ATRi 0 nM)): 51.76 and 52.32 and 44.31
Response (AsPC-1 cells; chemodrug 10 nM + ATRi 3 nM): 44.83 and 35.01 and 34.23
Response (AsPC-1 cells; chemodrug 10 nM + ATRi 10 nM): 38.43 and 33.69 and 33.51
Response (AsPC-1 cells; chemodrug 10 nM + ATRi 30 nM): 39.64 and 34.49 and 30.28
Response (AsPC-1 cells; chemodrug 10 nM alone (ATRi 0 nM)): 41.65 and 34.17 and 31.46
Response (AsPC-1 cells; chemodrug 30 nM + ATRi 3 nM): 39.42 and 37.16 and 36.82
Response (AsPC-1 cells; chemodrug 30 nM + ATRi 10 nM): 50.74 and 48.74 and 42.64
Response (AsPC-1 cells; chemodrug 30 nM + ATRi 30 nM): 37.65 and 29.32 and 30.21
Response (AsPC-1 cells; chemodrug 30 nM alone (ATRi 0 nM)): 37.54 and 28.80 and 29.10
Response (AsPC-1 cells; chemodrug 100 nM + ATRi 3 nM): 42.23 and 38.61 and 46.44
Response (AsPC-1 cells; chemodrug 100 nM + ATRi 10 nM): 39.32 and 32.95 and 29.28
Response (AsPC-1 cells; chemodrug 100 nM + ATRi 30 nM): 43.96 and 36.95 and 33.77
Response (AsPC-1 cells; chemodrug 100 nM alone (ATRi 0 nM)): 39.78 and 30.74 and 27.32
Response (AsPC-1 cells; chemodrug 300 nM + ATRi 3 nM): 37.81 and 31.67 and 30.77
Response (AsPC-1 cells; chemodrug 300 nM + ATRi 10 nM): 33.31 and 30.07 and 28.41
Response (AsPC-1 cells; chemodrug 300 nM + ATRi 30 nM): 35.70 and 31.17 and 27.41
Response (AsPC-1 cells; chemodrug 300 nM alone (ATRi 0 nM)): 37.36 and 36.59 and 31.62
Response (AsPC-1 cells; chemodrug 1000 nM + ATRi 3 nM): 37.14 and 28.54 and 28.57
Response (AsPC-1 cells; chemodrug 1000 nM + ATRi 10 nM): 36.12 and 27.22 and 30.37
Response (AsPC-1 cells; chemodrug 1000 nM + ATRi 30 nM): 34.38 and 27.12 and 28.86
Response (AsPC-1 cells; chemodrug 1000 nM alone (ATRi 0 nM)): 37.88 and 33.79 and 33.23
Response (AsPC-1 cells; chemodrug 3000 nM + ATRi 3 nM): 36.69 and 27.57 and 27.01
Response (AsPC-1 cells; chemodrug 3000 nM + ATRi 10 nM): 34.07 and 26.83 and 25.03
Response (AsPC-1 cells; chemodrug 3000 nM + ATRi 30 nM): 28.21 and 28.84 and 28.63
Response (AsPC-1 cells; chemodrug 3000 nM alone (ATRi 0 nM)): 33.73 and 34.70 and 28.11
sensitization of AsPC-1 cells to the chemodrug by Elimusertib (AsPC-1 cells; chemodrug + three sub-EC50 doses of Elimusertib): not

EC50 (BxPC-3): 2980 nM
EC50 (Colo-357): 4280 nM
EC50 (PANC-1): 3470 nM
EC50 (AsPC-1): 4660 nM
EC50 (MiaPaCa-2): 2900 nM
SMILES: COc1ccc(CN2[C@@H]3C[C@H]2CN(c2ccc(-c4cc(OCC(C)(C)O)cn5ncc(C#N)c45)cn2)C3)cn1 [Selpercatinib]
EC50 (PaTu-8988-T): 543 nM
EC50 (PSN-1 [1]): > 10000 nM
EC50 (Dan-G): 6000 nM
EC50 (FAMPAC): > 10000 nM
EC50 (Capan-1): > 10000 nM
EC50 (HPDE): 4930 nM
EC50 (HuP-T4): 72.1 nM
EC50 (Suit2-07): 1160 nM

EC50 (BxPC-3): 323 nM
EC50 (PANC-1): > 10000 nM
EC50 (AsPC-1): 1.63 nM
SMILES: CNC(=O)c1ccc(-c2cnc3ncc(Cc4ccc5ncccc5c4)n3n2)cc1F [Capmatinib]
EC50 (PaTu-8988-T): > 10000 nM
EC50 (PSN-1 [1]): 521 nM
EC50 (Dan-G): 451 nM
EC50 (FAMPAC): 8.91 nM
EC50 (Capan-1): 6320 nM
EC50 (HPDE): 1090 nM
EC50 (HuP-T4): 3120 nM
EC50 (Suit2-07): 6000 nM

EC50 (BxPC-3): > 10000 nM
EC50 (Colo-357): 6330 nM
EC50 (PANC-1): 282 nM
EC50 (AsPC-1): > 10000 nM
EC50 (MiaPaCa-2): 3920 nM
SMILES: NC(=O)c1cnc2[nH]ccc2c1N[C@@H]1[C@@H]2CC3C[C@H]1C[C@@](O)(C3)C2 [Peficitinib]
EC50 (PaTu-8988-T): > 10000 nM
EC50 (Dan-G): 3590 nM
EC50 (FAMPAC): > 10000 nM
EC50 (Capan-1): > 10000 nM
EC50 (HPDE): 8470 nM
EC50 (HuP-T4): 116 nM
EC50 (Suit2-07): 2770 nM
EC50 (PSN-1 [2]): 6420 nM
